Measurements taken from ChEMBL document CHEMBL1201862, “PubChem BioAssay data set” (2004).
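Growth conditions: 96-well plates. Treatment: test compound, 48 hours, 5 concentrations. Analysis: linear interpolation between bracketing concentrations; unreached endpoints set to highest concentration. Here, GI50 denotes the concentration required for 50% inhibition of growth.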 Calls of active or inactive are those of the source. Rule as the data show it: active = GI50 up to about 1.1 µM and inactive = higher.

What was measured:
Experiment in all cases: NCI-60 cell line screen, 48 h
[1] = system: NCI-H23
[2] = system: DMS-273
[3] = system: A498
[4] = system: NCI-H226
[5] = system: HCC 2998
[6] = system: TK-10
[7] = system: DMS-114
[8] = system: NCI-H522
[9] = system: HOP-92
[10] = system: RPMI-8226
[11] = system: MOLT-4
[12] = system: OVCAR-5
[13] = system: HT-29
[14] = system: UACC-257
[15] = system: RXF 393
[16] = system: 786-0
[17] = system: UACC-62
[18] = system: SW-620
[19] = system: SK-MEL-5
[20] = system: SK-OV-3
[21] = system: COLO 205
[22] = system: SNB-19
[23] = system: ACHN
[24] = system: SN12C
[25] = system: HCT-116
[26] = system: EKVX
[27] = system: U-251
[28] = system: IGROV-1
[29] = system: M19-MEL
[30] = system: Malme-3M
[31] = system: KM12
[32] = system: SF-295
[33] = system: KM-20L2
[34] = system: SK-MEL-2
[35] = system: SR
[36] = system: HCT-15
[37] = system: SNB-78
[38] = system: OVCAR-3
[39] = system: LXFL 529
[40] = system: UO-31
[41] = system: SF-539
[42] = system: OVCAR-8
[43] = system: K562
[44] = system: SNB-75
[45] = system: SF-268
[46] = system: SK-MEL-28
[47] = system: A549
[48] = system: BT-549
[49] = system: CAKI-1
[50] = system: MDA-MB-231
[51] = system: MDA-MB-435
[52] = system: M14
[53] = system: OVCAR-4
[54] = system: PC-3
[55] = system: HL-60
[56] = system: MDA-N
[57] = system: MCF7
[58] = system: HOP-62
[59] = system: DU-145
[60] = system: Hs-578T
[61] = system: NCI/ADR-RES
[62] = system: CCRF-CEM
[63] = system: NCI-H460
[64] = system: LOX IMVI
[65] = system: T47D

With `CC1[C@@H]2CC=C3[C@H]4CCC5Cc6nc7c(nc6C[C@@]5(C)C4CC(=O)[C@]32CO[C@]12OC(C)(C)CC2O)CC1CC[C@@H]2C3=C[C@H]4O[C@@]5(O[C@@](C)(CO)C[C@@H]5O)C(C)[C@@]4(O)[C@]3(C)[C@@H](O)CC2[C@]1(C)C7` (stereo not given in full) the GI50 [1] was 0.0055 µM (active), the GI50 [2] was 0.105 nM (active) and the GI50 [3] was 1.43 nM (active). For the same compound, the GI50 [4] was 0.00273 µM (active), the GI50 [5] was 0.0955 µM (active) and the GI50 [6] was 0.034 µM (active). For the same compound, the GI50 [7] was 0.000172 µM (active) and the GI50 [8] was 1.21 nM (active).

`Cn1c(=O)c2nc3c4ccccc4c(=O)n(C)c3nc2n(C)c1=O` was tested, and the GI50 [9] was > 100 µM (inactive), the GI50 [10] was > 100000 nM (inactive) and the GI50 [11] was > 100000 nM (inactive). The GI50 [12] was > 100 µM (inactive), the GI50 [13] was > 100 µM (inactive) and the GI50 [14] was > 100 µM (inactive). The GI50 [15] was > 100 µM (inactive), the GI50 [16] was > 100 µM (inactive) and the GI50 [17] was > 100 µM (inactive). The GI50 [18] was > 100 µM (inactive), the GI50 [19] was > 100 µM (inactive) and the GI50 [20] was > 100 µM (inactive). For the same compound, the GI50 [21] was > 100 µM (inactive), the GI50 [22] was > 100 µM (inactive) and the GI50 [23] was > 100 µM (inactive). For the same compound, the GI50 [24] was > 100 µM (inactive), the GI50 [1] was > 100 µM (inactive) and the GI50 [25] was > 100 µM (inactive). For the same compound, the GI50 [26] was > 100 µM (inactive), the GI50 [27] was > 100 µM (inactive) and the GI50 [28] was > 100 µM (inactive). The GI50 [29] was > 100 µM (inactive), the GI50 [30] was > 100 µM (inactive) and the GI50 [31] was > 100 µM (inactive). The GI50 [4] was > 100 µM (inactive), the GI50 [32] was > 100 µM (inactive) and the GI50 [33] was > 100 µM (inactive). The GI50 [5] was > 100 µM (inactive), the GI50 [34] was > 100 µM (inactive) and the GI50 [35] was > 100 µM (inactive). The GI50 [36] was > 100 µM, the GI50 [37] was > 100 µM (inactive) and the GI50 [38] was > 100 µM (inactive). The GI50 [39] was > 100 µM (inactive), the GI50 [40] was > 100 µM (inactive) and the GI50 [41] was > 100 µM (inactive). The GI50 [6] was > 100 µM (inactive), the GI50 [42] was > 100 µM (inactive) and the GI50 [7] was > 100 µM (inactive). For the same compound, the GI50 [43] was > 100000 nM (inactive), the GI50 [44] was > 100 µM (inactive) and the GI50 [45] was > 100 µM (inactive). For the same compound, the GI50 [46] was > 100 µM (inactive) and the GI50 [47] was > 100 µM (inactive).

`CC(C)N(CCCNc1c2ccccc2nc2cccc([N+](=O)[O-])c12)C(C)C` was tested, and the GI50 [48] was < 0.0196 µM (active), the GI50 [49] was < 0.0418 µM (active) and the GI50 [9] was 0.014 µM (active). The GI50 [50] was < 0.01 µM (active), the GI50 [10] was < 10 nM (active) and the GI50 [11] was < 13.4 nM (active). The GI50 [12] was < 0.0191 µM (active), the GI50 [13] was < 0.01 µM (active) and the GI50 [14] was < 0.0231 µM (active). For the same compound, the GI50 [15] was 0.0153 µM (active), the GI50 [16] was < 0.0179 µM (active) and the GI50 [17] was 0.0358 µM (active). The GI50 [51] was < 0.0125 µM (active), the GI50 [52] was 0.0125 µM (active) and the GI50 [18] was < 0.01 µM (active). The GI50 [19] was < 0.01 µM (active), the GI50 [53] was 0.0246 µM (active) and the GI50 [20] was < 0.0326 µM (active). The GI50 [21] was 0.0101 µM (active), the GI50 [22] was < 0.0224 µM (active) and the GI50 [23] was < 0.0126 µM (active). The GI50 [24] was < 0.0165 µM (active), the GI50 [1] was < 0.0108 µM (active) and the GI50 [25] was < 0.01 µM (active). For the same compound, the GI50 [26] was < 0.015 µM (active), the GI50 [54] was < 0.0203 µM (active) and the GI50 [55] was < 0.018 µM (active). For the same compound, the GI50 [27] was < 0.0163 µM (active), the GI50 [28] was < 0.0385 µM (active) and the GI50 [3] was 19.6 nM (active). The GI50 [30] was < 0.0214 µM (active), the GI50 [31] was < 0.0188 µM (active) and the GI50 [4] was 0.0481 µM (active). For the same compound, the GI50 [56] was 0.0131 µM (active), the GI50 [32] was < 0.0152 µM (active) and the GI50 [5] was < 0.01 µM (active). The GI50 [57] was 0.0114 µM (active), the GI50 [34] was 0.0473 µM (active) and the GI50 [58] was < 0.0191 µM (active). The GI50 [35] was < 0.01 µM (active), the GI50 [59] was < 0.01 µM (active) and the GI50 [60] was < 0.0257 µM (active). The GI50 [36] was 0.0191 µM, the GI50 [38] was < 0.023 µM (active) and the GI50 [61] was 0.986 µM (active). For the same compound, the GI50 [40] was < 0.0224 µM (active), the GI50 [41] was < 0.0216 µM (active) and the GI50 [62] was < 0.0173 µM (active). For the same compound, the GI50 [6] was < 0.0205 µM (active), the GI50 [42] was < 0.0167 µM (active) and the GI50 [63] was < 0.01 µM (active). The GI50 [8] was 10.4 nM (active), the GI50 [64] was < 0.0206 µM (active) and the GI50 [43] was 19.5 nM (active). The GI50 [44] was < 0.044 µM (active), the GI50 [65] was < 0.0269 µM (active) and the GI50 [45] was < 0.0224 µM (active). For the same compound, the GI50 [46] was < 0.01 µM (active) and the GI50 [47] was < 0.0104 µM (active).

In the case of `Cn1ccnc1Sc1ccc(/C=N/NC(=O)c2ccccc2O)cc1[N+](=O)[O-]`, the GI50 [48] is reported as 89.7 µM (inactive), the GI50 [49] is reported as 72.8 µM (inactive) and the GI50 [9] is reported as > 100 µM (inactive). For the same compound, the GI50 [50] was > 100 µM (inactive), the GI50 [10] was 72.3 nM (active) and the GI50 [11] was 428 nM (active). For the same compound, the GI50 [12] was > 100 µM (inactive), the GI50 [13] was 33.7 µM (inactive) and the GI50 [14] was > 100 µM (inactive). For the same compound, the GI50 [15] was > 100 µM (inactive), the GI50 [16] was 61.4 µM (inactive) and the GI50 [17] was 86.1 µM (inactive). For the same compound, the GI50 [51] was 57 µM (inactive), the GI50 [52] was > 100 µM (inactive) and the GI50 [18] was > 100 µM (inactive). The GI50 [19] was 55.7 µM (inactive), the GI50 [53] was 72.6 µM (inactive) and the GI50 [20] was > 100 µM (inactive). The GI50 [21] was 22.2 µM (inactive), the GI50 [22] was > 100 µM (inactive) and the GI50 [23] was > 100 µM (inactive). For the same compound, the GI50 [24] was 55 µM (inactive), the GI50 [1] was 56.9 µM (inactive) and the GI50 [25] was 70.1 µM (inactive). For the same compound, the GI50 [26] was 94 µM (inactive), the GI50 [54] was 56.9 µM (inactive) and the GI50 [55] was 44.9 µM (inactive). For the same compound, the GI50 [27] was 66.4 µM (inactive), the GI50 [28] was 35.1 µM (inactive) and the GI50 [3] was > 100000 nM (inactive). For the same compound, the GI50 [30] was 40.9 µM (inactive), the GI50 [31] was > 100 µM (inactive) and the GI50 [4] was > 100 µM (inactive). The GI50 [56] was 61.5 µM (inactive), the GI50 [32] was > 100 µM (inactive) and the GI50 [5] was 96.4 µM (inactive). The GI50 [57] was 84.3 µM (inactive), the GI50 [34] was 37.8 µM (inactive) and the GI50 [58] was 73.6 µM (inactive). For the same compound, the GI50 [35] was 2.27 µM (inactive), the GI50 [59] was > 100 µM (inactive) and the GI50 [60] was 92.5 µM (inactive). For the same compound, the GI50 [36] was 39.6 µM, the GI50 [38] was > 100 µM (inactive) and the GI50 [61] was > 100 µM (inactive). The GI50 [40] was 79.1 µM (inactive), the GI50 [41] was 60.7 µM (inactive) and the GI50 [62] was 37.6 µM (inactive). The GI50 [6] was > 100 µM (inactive), the GI50 [42] was > 100 µM (inactive) and the GI50 [63] was 69.5 µM (inactive). For the same compound, the GI50 [8] was 41700 nM (inactive), the GI50 [64] was 65.2 µM (inactive) and the GI50 [43] was 298 nM (active). For the same compound, the GI50 [44] was > 100 µM (inactive), the GI50 [65] was 80.2 µM (inactive) and the GI50 [45] was 48.8 µM (inactive). The GI50 [46] was > 100 µM (inactive) and the GI50 [47] was > 100 µM (inactive).
